Data as given in US5811078A, “Spray formulations of antihyperalgesic opiates and method of treating topical hyperalgesic conditions therewith” (Adolor Corporation, priority 1997, dated 1998).
Structures can show the parent of a compound that is named as a salt. Where two headings read alike, the source gives them in different places.

How the values were obtained:
[1] = Peripheral selectivity: ratio of ED50 in the tail-withdrawal assay over ED50 in the anti-diarrheal (castor oil) assay; format: in vivo, female Wistar rats
Excerpt: The cut off time is 15 seconds. […] After each determination the tail is carefully dried.
Each animal is kept in an individual cage.

[2] = system: central nervous system; settings: reported prior use, antidiarrheal formulations, hydrochloride, cited from earlier work

| Compound | Peripheral Selectivity (ED50tw/ED50 Castor Oil) ([1]; po) | also measured |
| --- | --- | --- |
| CCN(C)C(=O)C(CCN1CCC(O)(c2ccc(Cl)cc2)CC1)(c1ccccc1)c1ccccc1 [Compound 2, 4-(p-Chlorophenyl)-4-hydroxy-N-ethyl-N-methyl-ααdiphenyl-1-piperidinebutyramide] | ≥ 1,231 | – |
| CN(C)C(=O)C(CCN1CCC(O)(c2ccc(Br)cc2)CC1)(c1ccccc1)c1ccccc1 [Compound 3, 4-(p-Bromophenyl)-4-hydroxy-N,N-dimethyl-αα-diphenyl-1-piperidinebutyramide] | 800 | – |
| O=C(N1CCCC1)C(CCN1CCC(O)(c2ccc(Cl)c(Cl)c2)CC1)(c1ccccc1)c1ccccc1 [Compound 4] | – | Peripheral Selectivity (ED50tw/ED50 Castor Oil) ([1]; oral, rats, tail withdrawal ED50 over castor oil test ED50 (both mg/kg)): > 640 |
| O=C(N1CCCC1)C(CCN1CCC(O)(c2ccc(Cl)cc2)CC1)(c1ccccc1)c1ccccc1 [Compound 5, 1-{4-[(4-Chlorophenyl)4-hydroxy-1-piperidino]-2,2-diphenylbutyryl}pyrrolidine] | 593 | – |
| CN(C)C(=O)C(CCN1CCC(O)(c2ccc(Cl)cc2)CC1)(c1ccccc1)c1ccccc1 [Compound 6, 4-(p-Chlorophenyl)-4-hydroxy-N,N-dimethyl-αα-diphenyl-1-piperidinebutyramide] | 533 | – |
| CN(C)C(=O)C(CCN1CCC(O)(c2ccc(F)cc2)CC1)(c1ccccc1)c1ccccc1 [Compound 7, 4-(p-Fluorophenyl)-4-hydroxy-N,N-dimethyl-αα-diphenyl-1-piperidinebutyramide] | 500 | – |
| CN(C)C(=O)C(CCN1CCC(O)(c2ccc(Cl)c(C(F)(F)F)c2)CC1)(c1ccccc1)c1ccccc1 [Compound 8, 4-(4-Chloro3-trifluoromethyl-phenyl)-4-hydroxy-N,N-dimethyl-αα-diphenyl-1-piperidinebutyramide] | 467 | – |
| O=C(N1CCCC1)C(CCN1CCC(O)(c2ccccc2)CC1)(c1ccccc1)c1ccccc1 [Compound 9, 1-[4-(4-Hydroxy-4phenyl-1piperidino)-2,2-diphenylbutyryl]pyrrolidine] | 437 | – |
| O=C(N1CCOCC1)C(CCN1CCC(O)(c2cccc(C(F)(F)F)c2)CC1)(c1ccccc1)c1ccccc1 [Compound 10] | > 251 | – |
| CN(C)C(=O)C(CCN1CCC(O)(c2ccc(Cl)cc2)CC1)(c1ccccc1)c1ccccc1 [loperamide, 4-(p-chlorophenyl)-4-hydroxy-N-N-dimethyl-αα-diphenyl-1-piperidinebutyramide hydrochloride] | – | CNS effects [2]: devoid of CNS effects; CNS effects ([2]; listed as Loperamide HCl): completely free of the undesirable CNS effects |
